Source: paper PMC9095466 (Nature, 2022)
Values joined by “and” are separate entries in the source; they are usually repeats but may differ in a detail not shown here. Equal entries are not always repeated. Where two headings read alike, the source gives them in different places.

Tests used:
[1] = system: SARS-CoV-2 (USA-WA1/2020, lineage A); test: K18-hACE2 mouse model of SARS-CoV-2, IHC of nucleocapsid with digital image analysis; type: in vivo, K18-hACE2 mice
Method: (§1) To detect viral antigen, sections were labelled with anti-SARS-CoV-2 nucleocapsid protein rabbit IgG monoclonal antibody (GeneTex; GTX635679) at a 1:5,000 dilution and processed using a Leica Bond Max automated IHC stainer. Leica Bond Polymer Refine Detection (Leica; DS9800) with DAB was used as the chromogen. Image acquisition was performed using a Roche Ventana DP200 slide scanner. Digital image analysis was performed using QuPath software[65],[66] v.0.2.3. Tissues were annotated to include all available lung tissue or all brain tissue excluding cerebellum, as cerebellar tissue was not available for all mice. Following annotation, automated detection was performed using automated SLIC superpixel segmentation with a DAB mean detection threshold of 0.18892.

[2] = system: SARS-CoV-2 (USA-WA1/2020, lineage A); type: in vivo, K18-hACE2 mice
[3] = system: SARS-CoV-2 B.1.617.2 (Delta); design: species or system K18-hACE2 mice; settings: mouse, in vivo
[4] = system: SARS-CoV-2 B.1.617.2 (Delta); type: in vivo, K18-hACE2 mice; settings: for PFU/g / PFU/mL: lung, plaque assay, N-0385 12h PI, individual mice
[5] = system: SARS-CoV-2 B.1.617.2 (Delta); test: K18-hACE2 mice infected with Delta VOC, IHC of nucleocapsid in lung; type: in vivo
Method: as §1

[6] = system: SARS-CoV-2 (USA-WA1/2020, lineage A); test: K18-hACE2 mouse model of SARS-CoV-2, H&E histopathology of lung and brain; settings: 8-day regimen
Method: (§2) For histological examination, mouse lungs and brains were collected directly after euthanasia and placed in 10% formalin for more than 72 h, after which tissues were embedded in paraffin. Tissue sections (4 μm) were analysed after staining with H&E and scored blinded by an anatomic pathologist. For lung, scores were applied based on the percentage of each tissue type (alveolus, vessels and so on) affected using the following criteria: (0) normal; (1) less than 10% affected; (2) 10–25% affected; (3) 26–50% affected; and (4) more than 50% affected[64]. Assessment of lung pathology in K18-hACE2 mice infected with the SARS-CoV-2 B.1.617.2 (Delta) VOC after single-dose treatment was performed on IHC sections counterstained with haematoxylin. For brains, histological scoring was assessed for perivascular inflammation using the most severely affected vessel and the following criteria: (0) no perivascular inflammation; (1) incomplete cuff one cell layer thick; (2) complete cuff one cell layer thick; (3) complete cuff two to three cells thick; and (4) complete cuff four or more cells thick. Necrotic cells in the neuroparenchyma were assessed per 0.237 mm^2 field using the most severely affected area and the following criteria: (0) no necrotic cells; (1) rare individual necrotic cells; (2) fewer than 10 necrotic cells; (3) 11 to 25 necrotic cells; (4) 26 to 50 necrotic cells; and (5) greater than 50 cells.

[7] = system: SARS-CoV-2 B.1.617.2 (Delta); test: K18-hACE2 mice infected with Delta VOC, lung pathology scores on IHC sections; settings: individual mice, single dose 12 hpi, 3 DPI
Method: as §2

[8] = Figure S8 C, tissue plaque assay, Females, individual animals
[9] = Figure S8 C, tissue plaque assay, Males, individual animals
[10] = Males, Figure 5 Panel F, individual animals
[11] = females, Figure 5 Panel F, individual animals
[12] = individual mice, tissue at death or end-point

For `CS(=O)(=O)NC(CCC(N)=O)C(=O)NC(Cc1ccccc1)C(=O)NC(CCCNC(=N)N)C(=O)c1nc2ccccc2s1` (stereo not shown) [Compound N-0385, Ms-QFR-kbt], the “Lung Positive %” value ([1]; individual mice, 8-day regimen, tissue at death or end-point) was 0.065% and 0.0502% and 0.0856% and 0.0701% and 0.0366% and 0.0726% and 1.322% and 0.8535% and 8.502% and 0.088%, the “reduction of IHC staining (nucleocapsid) in lung at 3 dpi” value ([1]; intranasal once daily day −1 to day 2, vs saline-treated mice) was 98% and the PFU/g [2, 8] was 0 PFU/g. For the same molecule, the PFU/mL [2, 8] was 0 PFU/mL, the PFU/g [2, 9] was 0 PFU/g and 4852.94 PFU/g and 5882.35 PFU/g and 11764706 PFU/g and the PFU/mL [2, 9] was 0 PFU/mL and 970.588 PFU/mL and 1176.47 PFU/mL and 2352941 PFU/mL. For the same molecule, the “Average Plaques” value ([2]; Males, Figure 5 Panel F, at the Dilution Factor, individual animals) was 53.25 and 0, the PFU/g [2, 10] was 2662500 PFU/g and 0 PFU/g and the PFU/mL [2, 10] was 532500 PFU/mL and 0 PFU/mL. The “Average Plaques” value ([2]; endpoint plaque assay (Panel H), females, individual animals) was 0, the PFU/g ([2]; endpoint plaque assay (Panel H), females, individual animals, tissue resuspended at 5ul/mg) was 0 PFU/g and the “Average Plaques” value ([2]; endpoint plaque assay (Panel H), males, individual animals) was 0. The PFU/g ([2]; endpoint plaque assay (Panel H), males, individual animals, tissue resuspended at 5ul/mg) was 0 PFU/g, the “Average Plaques” value ([2]; females, Figure 5 Panel F, at the Dilution Factor, individual animals) was 21 and 0 and 7.75 and the PFU/g [2, 11] was 10500000 PFU/g and 0 PFU/g and 387500 PFU/g. For the same molecule, the PFU/mL [2, 11] was 2100000 PFU/mL and 0 PFU/mL and 77500 PFU/mL, the “infectious virus in the lung at the study end-point” value ([2]; intranasal once daily day −1 to day 2, 14 dpi) was “No infectious virus was detected” and the PFU/mL ([2]; mouse, in vivo) was 0 PFU/mL. The “reduction of lung viral titres (plaque assay) at 3 dpi” value ([2]; mouse, in vivo) was 97%, the “weight gain (six days after infection)” value [3] was 2% and the “weight loss (six days after infection)” value [3] was 5%. The PFU/g ([4]; Females) was 30000000 PFU/g and 0 PFU/g and 275000 PFU/g and 1000 PFU/g, the PFU/mL ([4]; Females) was 6000000 PFU/mL and 0 PFU/mL and 55000 PFU/mL and 200 PFU/mL and the PFU/g ([4]; Males) was 275000 PFU/g and 32500 PFU/g and 1750 PFU/g and 0 PFU/g. The PFU/mL ([4]; Males) was 55000 PFU/mL and 6500 PFU/mL and 350 PFU/mL and 0 PFU/mL, the “reduction in lung viral titres at 3 dpi” value ([4]; mouse, in vivo) was “more than 50%” and the “Num Positive events/mm^2 (nucleocapsid IHC, lung)” value ([5]; individual mice (f = female, m = male), single dose 12 hpi, 3 dpi, Fig. 6f, listed as n385) was 2181.1 events/mm^2 and 5.047 events/mm^2 and 10.41 events/mm^2 and 9.171 events/mm^2 and 935.88 events/mm^2 and 0.9105 events/mm^2 and 3.523 events/mm^2 and 51.75 events/mm^2 and 3.842 events/mm^2 and 20.48 events/mm^2. For the same molecule, the “reduction in IHC viral staining in lung at 3 dpi” value ([5]; single dose at 12 hpi, vs saline-treated group) was “more than 50%”, the “Brain lesions (H&E)” value ([6]; N-0385: surviving mice, day 14) was “absent” and the “Perivascular infiltrates in CNS score” value ([6]; individual mice, most severely affected vessel) was 0 and 1. The Alveolar cells score [6, 12] was 2 ((2) 10–25% affected) and 1 ((1) <10% affected) and 0, the Alveolar edema score [6, 12] was 0 and the Alveolar fibrin score [6, 12] was 0. For the same molecule, the Fibrosis score [6, 12] was 2 ((2) 10–25% affected) and 1 ((1) <10% affected) and 0, the “Interstitial infiltrates in lung score” value [6, 12] was 2 ((2) 10–25% affected) and 1 ((1) <10% affected) and 0 and the Lymphoid hyperplasia score [6, 12] was 1 ((1) <10% affected) and 0. For the same molecule, the “Perivascular infiltrate in lung score” value [6, 12] was 3 ((3) 26–50% affected) and 1 ((1) <10% affected) and 0, the “Type II pneumocyte hyperplasia score” value [6, 12] was 2 ((2) 10–25% affected) and 1 ((1) <10% affected) and 0 and 3 ((3) 26–50% affected) and the Alveolar cells score ([7]; IHC sections) was 0 and 1 ((1) <10% affected). The “Interstitial infiltrates in lung score” value ([7]; IHC sections) was 1 ((1) <10% affected) and 2 ((2) 10–25% affected), the “Perivascular infiltrate in lung score” value ([7]; IHC sections) was 1 ((1) <10% affected) and 2 ((2) 10–25% affected) and 0 and 3 ((3) 26–50% affected) and the “Type II pneumocyte hyperplasia score” value ([7]; IHC sections) was 0 and 2 ((2) 10–25% affected) and 1 ((1) <10% affected). The “Total Score (lung pathology)” value ([7]; sum of scores) was 2 and 6 and 3 and 1 and 7.
